Assay results as given in patent publication US12029728B2, “Small molecules with anti-protozoan activity” (New Mexico Tech University Research Park Corporation, priority 2018, dated 2024).

What was measured:
[1] = tested on: Jurkat cells; experiment: MTT cell survival assay, Jurkat; format: cell-based; settings: Homo sapiens, 48 hours at 37° C., read-out: IC50 (GI50), cell survival
Procedure: The GI50 (IC50), the concentration at which 50% cell survival is seen upon treatment with a compound, was determined for Compound 2 in Jurkat, U87, HeLa, and ARPE cells. Cells were cultured in 96-well plates and incubated with 50 μM, 25 μM, 12.5 μM, 6 μM, 3 μM, 1.5 μM, or 0 μM of Compound 2 for 48 hours at 37° C. Following the incubation period, a 3-(4,5-dimethylthiazol-2-yl)-2,5-diphenyl tetrazolium bromide (MTT) assay was performed. In brief, a 10% volume of MTT was added to each well. Cells were incubated with MTT for 2 hours, at which time cell supernatant was removed and cells were taken into 100 μL DMSO. The absorbance of cell solutions was then read at 595 nm. A decrease in absorbance indicated a decrease in cell survival.

[2] = tested on: L. major-infected MDMs; experiment: L. major-infected human MDMs, quantitative cell bioimaging; format: cell-based, Leishmania major; settings: 1 μM, 5 μM, 10 μM
Procedure: Human MDMs were cultured on glass slides and incubated with metacyclic L. major for 24 hours to allow for internalization of parasites. After the 24-hour L. major incubation period, extracellular parasites were removed from the culture. 24 hours after the removal of extracellular parasites, infected cells were treated with vehicle control (DMSO), 5 μM MTF, 1 μM Compound 2, 5 μM Compound 2, 10 μM Compound 2, 2 μM Compound 7, or 20 μM Compound 7. Following treatment, the cells were fixed with 2% paraformaldehyde and subsequently stained with the DNA stain Hoechst 33342. The stained cover slips were transferred onto glass slides, and quantitative cell bioimaging was utilized to determine the number of amastigotes per 500 cells using a CellInsight CX5 High Content screening platform.

O=C(NO)C(c1ccccc1)c1c(-c2ccc3ccccc3c2)[nH]c2ccccc12 (centres unmarked) [Compound 2, N-hydroxy-2-(2-(naphthalen-2-yl)-1H-indol-3-yl)-2-phenylacetamide]
IC50 [1]: 7.97 ± 1.06 µM
total number of parasites per cell [2]: decreased the total number of parasites per cell in a dose dependent manner
